Experimental data from PubChem BioAssay (NCI).
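Values below derive from 48-hour exposures of cells grown in 96-well plates, with endpoints linearly interpolated between the two concentrations bracketing the appropriate inhibition level. GI50 = concentration required for 50% inhibition of growth. TGI is the concentration that stops growth completely.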

Assays:
Test in all cases: growth of human tumour cells (NCI), 48 h
BT-549 breast = test system: BT-549 breast
SNB-19 CNS = test system: SNB-19 CNS
SNB-75 CNS = test system: SNB-75 CNS
HT29 colon = test system: HT29 colon
SF-295 CNS = test system: SF-295 CNS
HCC-2998 colon = test system: HCC-2998 colon
SF-268 CNS = test system: SF-268 CNS
RPMI-8226 leukemia = test system: RPMI-8226 leukemia
HCT-116 colon = test system: HCT-116 colon
UO-31 renal = test system: UO-31 renal

Compound	GI50 (BT-549 breast) [µM]	TGI (BT-549 breast) [µM]	GI50 (SNB-19 CNS) [µM]	TGI (SNB-19 CNS) [µM]	GI50 (SNB-75 CNS) [µM]	TGI (SNB-75 CNS) [µM]	GI50 (HT29 colon) [µM]	TGI (HT29 colon) [µM]	GI50 (SF-295 CNS) [µM]	TGI (SF-295 CNS) [µM]	GI50 (HCC-2998 colon) [µM]	TGI (HCC-2998 colon) [µM]	GI50 (SF-268 CNS) [µM]	TGI (SF-268 CNS) [µM]	GI50 (RPMI-8226 leukemia) [µM]	TGI (RPMI-8226 leukemia) [µM]	GI50 (HCT-116 colon) [µM]	TGI (HCT-116 colon) [µM]	GI50 (UO-31 renal) [µM]	TGI (UO-31 renal) [µM]
COc1ccc2c(c1)C(=O)c1c-2n(CCCN(C)C)c(=O)c2ccccc12	0.521	3.11	0.264	3.4	0.648	5.29	0.275	10.9	0.223	1.21	0.187	0.955	0.258	2.84	0.165	0.532	0.213	1.42	0.167	0.811
COc1ccc2ncn(-c3cc(O[C@H](C)c4ccccc4C(F)(F)F)c(C(N)=O)s3)c2c1	0.474	7	1.88	11.3	0.917	6.6	0.0839	3.21	0.162	6.16	0.161	3.27	0.235	8.95	0.627	8.44	0.125	3.53	1.79	12.4
CC(C)(C)C(=O)OCOP(=O)(NCc1ccccc1)C1CCCN(O)C1=O (stereo not given)	5.81	53.4	3.12	24.9	4.97	39.1	3.35	61.9	3.23	29.5	2.37	12	2.09	> 100	2.25	7.28	2.84	14.4	0.349	2.99
Cc1nc([N+](=O)[O-])cn1-c1nc2ccccn2c1[N+](=O)[O-]	–	> 100	–	> 100	–	63.7	–	> 100	–	> 100	–	> 100	–	> 100	–	> 100	–	> 100	–	> 100
Cc1cc2c(C(=O)NC[C@H](C)c3ccccc3)c(O)c(O)cc2c(O)c1-c1c(C)cc2c(C(=O)NC[C@H](C)c3ccccc3)c(O)c(O)cc2c1O	0.0437	2.03	0.0605	4.3	0.251	1.98	0.355	11	0.131	0.702	0.932	3.08	0.234	3.7	0.185	5.41	0.0346	9.59	0.285	1.24
CCc1ccc(Oc2c(-c3ccc(OCc4ccc(Cl)cc4)cc3O)n[nH]c2C(F)(F)F)cc1	2.04	3.95	1.98	4.21	1.48	5.8	2	3.95	2.04	4.74	1.93	4	1.74	3.39	2.33	5.25	1.67	3.19	1.68	3.89
Fc1ccc(-c2c(-c3ccncc3)nc3n2CCS3)cc1	> 25	> 25	> 25	> 25	> 25	> 25	> 25	> 25	> 25	> 25	> 25	> 25	> 25	> 25	> 25	> 25	> 25	> 25	> 25	> 25
C/C=C(\C)c1cc(=O)c2c(C)cc3c(c2o1)C(=O)c1c(O)c(C2CC(C)(N(C)C)C(OC(C)=O)C(C)O2)cc(C2CC(N(C)C)C(O)C(C)O2)c1C3=O (stereo not given)	–	3.42	–	10.9	–	7.33	–	6.75	–	> 16.9	–	2.32	–	9.56	–	> 50	–	6.33	–	7.87
CC(C)C[C@H](NC(=O)CNC(=O)c1cc(Cl)ccc1Cl)B(O)O	< 0.0145	0.137	0.273	> 87.8	0.0256	0.124	< 0.0155	0.0616	0.0252	0.1	0.0199	0.0436	0.0343	0.22	< 0.01	0.0162	< 0.0131	0.659	< 0.0131	0.0406
COc1ccccc1Nc1cc(O)c2c(=O)cc(-c3ccccc3)oc2c1	4.96	37.2	2.99	15.7	2.39	8.5	3.64	> 100	2.98	13.2	6.07	> 100	4.71	48.2	4.51	> 100	3.31	> 100	3.57	21.5
CCc1nc(N)nc(N)c1-c1ccc(Cl)c([N+](=O)[O-])c1	–	> 100	–	> 100	–	> 100	–	> 100	–	> 70.4	–	> 100	–	> 100	–	> 83.9	–	> 100	–	> 100
O=C1NC(=C(Cl)Cl)/C(=N/S(=O)(=O)N2CCCCC2)N1	2.33	5.62	2.38	5.34	1.76	3.77	1.99	3.98	5.14	17.3	2.28	5.22	2.43	6.53	0.553	4.23	1.85	3.39	2.87	12.4
O=C(CSc1nc2c(n1Nc1ccccc1)-c1ccccc1SC2)Nc1nc(-c2ccc(Cl)cc2)cs1	33.5	> 100	15.3	63.5	9.23	23.8	> 100	> 100	11.3	33.5	> 100	> 100	10.8	> 100	> 100	> 100	6.37	> 100	> 100	> 100
